Measurements reported in patent US11213506B2, “Combination therapy for the treatment or prevention of tumours” (QBIOTICS PTY LTD, priority 2017, dated 2022).

Assays:
[1] = tested on: CD11c+ BMDCs with B16-OVA cells; assay: BMDC uptake of epoxytigliane treated B16-OVA cells; format: cell-based, C57Bl/6 mice; details: B16-OVA treated at 500 or 300 μM for 30 and 60 mins; 4 h co-culture
Method: The tibias and […] from four 7-8 week old C57Bl/6 mice were first surgically removed under sterile conditions. The marrow was flushed from the bone cavity with 10 ml of ice cold R10 media (using a 27G needle/syringe into a 50 ml polypropylene tube). Cells were pelleted at 1,500 rpm for 5 mins and washed ×2 with ice cold R10 media. After resuspension of the pellet into 10 ml of ice cold R10 medium, cells were counted using an improved haemocytometer and plated at a density of 2×10^6 cells per plate (petri dish) in 10 ml of R10 supplemented with 20 ng/ml murine GM-CSF. All plates were incubated at 37° C., 5% CO2 and at day 3 an additional 10 ml R10 with 20 ng/ml GM-CSF was added. Cells were again fed at day 6 and used for downstream assays on day 7.
Prior to co-incubation with BMDCs, B16-OVA cells were trypsinised, centrifuged at 1,200 rpm for 4 mins to pellet cells and washed ×2 with complete medium. Cells were then stained with 2 μM Cell Tracker Green in complete medium for 45 mins, after which they were pelleted and washed ×2 as above. Labelled B16-OVA cells were subsequently treated with Compounds 1, 2, 3 and 4 at two concentrations (500 or 300 μM) in media at a density of 1×10^6 cells/ml for 30 and 60 mins, after which cells were pelleted via centrifugation, supernatant removed via aspiration and the cell pellet washed ×1 with complete media. After the wash, the treated cells were resuspended in R10 media, inserted into the wells of a 6-well plate (Corning, #3471. Ultra low attachment surface) and BMDCs added. Co-cultures were incubated for 4 h after which cell suspensions were transferred to a microfuge tube and centrifuged at 1,500 rpm for 5 mins. Pellets were resuspended in 100 μl FACs buffer containing anti-CD11c-APC and incubated for 10 mins at 4° C. Cells were again pelleted, washed ×1 with FACs buffer and then fixed using PBS, 1% formaldehyde for 10 mins. After centrifugation and removal of the supernatant, cells were resuspended in 500 μl FACs buffer in preparation for flow cytometry.
Samples were first gated by FSC-H v FSC-A, then SSC-H v SS-A to identify single cells. The proportion of CD11c^+ cells (Ex: 640 nm, Em: 670/14) with CMFDAmid (Ex: 488 nm, Em: 530/30) were then determined for treated and untreated cells as a percentage of all CD11c^+ cells.

[2] = tested on: B16-OVA cells; assay: ATP release assay; format: cell-based, mouse; details: both concentrations (500 and 300 μM), within 60 minutes
Method: (§1) A431 (human epidermoid carcinoma), MM649 (human melanoma) and B16-OVA (B16-F10 mouse melanoma cell line stably transfected with chicken ovalbumin) were cultured in RPMI-1640, 10% FCS (complete medium) at 37° C., 5% CO2 in a humidified incubator. BMDCs were cultured in R10 media (RPMI, 10% FCS, 2 mM glutamine, 50 μM beta-mercaptoethanol, Pen/Strep). All cell lines used in this study were confirmed as mycoplasma negative using MycoAlert (Lonza). STR profiling was also performed to confirm the identity of the human cell lines used.
(§2) Cell lines were plated at a density of 10,000 cells per well into clear 96-well plates (Corning, #3595; 100 μl of complete media) and the resultant plates incubated overnight as previously detailed. The following day, media was aspirated from each well and 50 μl of fresh medium was inserted. Stock solutions of Compounds 1, 2, 3 and 4 were diluted to 2× final assay concentration (1 mM and 600 μM) and 50 μl of these dilutions added to the required wells. Ethanol only control solutions were also compiled and administered. At the indicated timepoints, 80 μl of media was removed, centrifuged at 1,200 rpm for 4 mins to pellet cell debris and 50 μl assayed for ATP using a bioluminescence based ATP assay kit (FLAA, Sigma-Aldrich). Relative luminescence units were recorded for each sample using a Hybrid Synergy H4 plate reader (BioTek).

[3] = tested on: FaDu cells; assay: IncuCyte cytotoxicity assay (propidium iodide); format: cell-based, human; details: 500 μM; for propidium iodide staining (loss of plasma membrane integrity): after 120 minutes, majority of cells; for cell morphology (cytoplasmic swelling, blistering): differing extents and kinetics of onset
Method: as §1, with “melanoma),” for “melanoma) and”, “ovalbumin), MM415 (human melanoma) and FaDu (human hypopharyngeal carcinoma) cells” for “ovalbumin)”, “incubator.” for “incubator. BMDCs were cultured in R10 media (RPMI, 10% FCS, 2 mM glutamine, 50 μM beta-mercaptoethanol, Pen/Strep).”
(§3) Four cancer cell lines (A431, MM649 (human melanoma), FaDu (HNSCC) and MM415 (human melanoma) were assessed for their response to epoxytigliane treatment. Cells were plated at a density of 10,000 cells per well (100 μl of complete media) into clear bottom black 96-well plates (Corning, #3603). Following 24 h incubation, the media within each well was aspirated and replaced with 50 μl of fresh media containing 1 μg/ml propidium iodide (PI). Stock solutions (20 mg/ml in ethanol) of four epoxytiglianes (Compounds 1, 2, 3 and 4) were diluted to 2× final assay concentration (1 mM) in identical media and inserted into a U-bottom 96 well plate in preparation for transfer. 50 μl of dilution was added to the required wells and the resultant plates inserted into an Essen Biosciences IncuCyte in preparation for imaging. Images were acquired at various time points (30 min, 1 h and at hourly intervals) for a total of 24 h.

[4] = tested on: MM649 cells; assay: IncuCyte cytotoxicity assay (propidium iodide); format: cell-based, human; details: 500 μM; for propidium iodide staining (loss of plasma membrane integrity): after 120 minutes, majority of cells; for cell morphology (cytoplasmic swelling, blistering): differing extents and kinetics of onset
Method: as §1, with “melanoma),” for “melanoma) and”, “ovalbumin), MM415 (human melanoma) and FaDu (human hypopharyngeal carcinoma) cells” for “ovalbumin)”, “incubator.” for “incubator. BMDCs were cultured in R10 media (RPMI, 10% FCS, 2 mM glutamine, 50 μM beta-mercaptoethanol, Pen/Strep).”
as §3

[5] = tested on: A431 cells; assay: IncuCyte cytotoxicity assay (propidium iodide); format: cell-based, human; details: 500 μM; for propidium iodide staining (loss of plasma membrane integrity): after 120 minutes, majority of cells; for cell morphology (cytoplasmic swelling, blistering): differing extents and kinetics of onset
Method: as §1, with “melanoma),” for “melanoma) and”, “ovalbumin), MM415 (human melanoma) and FaDu (human hypopharyngeal carcinoma) cells” for “ovalbumin)”, “incubator.” for “incubator. BMDCs were cultured in R10 media (RPMI, 10% FCS, 2 mM glutamine, 50 μM beta-mercaptoethanol, Pen/Strep).”
as §3

[6] = tested on: MM415 cells; assay: IncuCyte cytotoxicity assay (propidium iodide); format: cell-based, human; details: 500 μM; for propidium iodide staining (loss of plasma membrane integrity): after 120 minutes, majority of cells; for cell morphology (cytoplasmic swelling, blistering): differing extents and kinetics of onset
Method: as §1, with “melanoma),” for “melanoma) and”, “ovalbumin), MM415 (human melanoma) and FaDu (human hypopharyngeal carcinoma) cells” for “ovalbumin)”, “incubator.” for “incubator. BMDCs were cultured in R10 media (RPMI, 10% FCS, 2 mM glutamine, 50 μM beta-mercaptoethanol, Pen/Strep).”
as §3

[7] = tested on: MM649 cells; assay: ATP release assay; format: cell-based, human; details: both concentrations (500 and 300 μM), within 60 minutes
Method: as §1, §2

[8] = tested on: A431 cells; assay: ATP release assay; format: cell-based, human; details: both concentrations (500 and 300 μM), within 60 minutes
Method: as §1, §2

| Structure (SMILES) | uptake of dying cancer cell fragments by CD11c+ dendritic cells/macrophages (BMDCs) [1] | ATP release [2] | propidium iodide staining (loss of plasma membrane integrity) [3] | cell morphology (cytoplasmic swelling, blistering) [3] | propidium iodide staining (loss of plasma membrane integrity) [4] | cell morphology (cytoplasmic swelling, blistering) [4] | propidium iodide staining (loss of plasma membrane integrity) [5] | cell morphology (cytoplasmic swelling, blistering) [5] | propidium iodide staining (loss of plasma membrane integrity) [6] | cell morphology (cytoplasmic swelling, blistering) [6] | ATP release [7] | ATP release [8] |
| --- | --- | --- | --- | --- | --- | --- | --- | --- | --- | --- | --- | --- |
| CCCCCC(=O)OC1C(C)C2(O)C(C3OC3(CO)C(O)C3(O)C(=O)C(C)=CC32)C2C(C)(C)C12OC(=O)C(C)CC (stereo not drawn) [Compound 3, 12-hexanoyl-13-(2-methylbutanoyl)-6,7-epoxy-4,5,9,12,13,20-hexahydroxy-1-tiglien-3-one] | promotes uptake | significant release of ATP | strong red staining | significant cytoplasmic swelling and ‘blistering’ | strong red staining | significant cytoplasmic swelling and ‘blistering’ | strong red staining | significant cytoplasmic swelling and ‘blistering’ | strong red staining | significant cytoplasmic swelling and ‘blistering’ | significant release of ATP | significant release of ATP |
| CCCCCC(=O)OC1C(C)C2(O)C(C3OC3(CO)C(O)C3(O)C(=O)C(C)=CC32)C2C(C)(C)C12OC(=O)CCCCC (stereo not drawn) [Compound 4, 12,13-dihexanoyl-6,7-epoxy-4,5,9,12,13,20-hexahydroxy-1-tiglien-3-one] | promotes uptake | significant release of ATP | strong red staining | significant cytoplasmic swelling and ‘blistering’ | strong red staining | significant cytoplasmic swelling and ‘blistering’ | strong red staining | significant cytoplasmic swelling and ‘blistering’ | strong red staining | significant cytoplasmic swelling and ‘blistering’ | significant release of ATP | significant release of ATP |
| CCC(C)C(=O)OC1C(C)C2(O)C(C3OC3(CO)C(O)C3(O)C(=O)C(C)=CC32)C2C(C)(C)C12OC(=O)C(C)CC (stereo not drawn) [Compound 2, 12,13-di-(2-methylbutanoyl)-6,7-epoxy-4,5,9,12,13,20-hexahydroxy-1-tiglien-3-one] | promotes uptake | significant release of ATP | strong red staining | significant cytoplasmic swelling and ‘blistering’ | strong red staining | significant cytoplasmic swelling and ‘blistering’ | strong red staining | significant cytoplasmic swelling and ‘blistering’ | strong red staining | significant cytoplasmic swelling and ‘blistering’ | significant release of ATP | significant release of ATP |
